Results on two molecules are retold here after publication PMC4991342 (Virulence, 2016).

Data set [1] has as its system mouse lymphoma L5178Y/TK^+/− cells (clone 3.7.2C). The data set is described as follows: In vitro mammalian cell gene mutation test. The class given is cell-based. Conditions: 4 h without S9-mix.
For data set [2], the target named is recombinant P. falciparum DXP reductoisomerase. To be noted: read-out: IC50 for recombinant P. falciparum DXP reductoisomerase; cited from earlier work.
For data set [3], the system named is acute urinary tract infections. To be noted: 70 patients with acute urinary tract infections; no details published; cited from earlier work.
The test system of another data set is P. falciparum malaria. Conditions: oral monotherapy; clinical phase II; cited from earlier work.

On to `COS(C)(=O)=O` [MMS, methyl methanesulfonate], for which the “MF (mutant frequency)” value in data set [1] (MMS 10 µg/ml (positive control), relevant increase) was 475.5 × 10^−6. For the same molecule, the “mean MF compared to the negative controls” value in data set [1] (MMS 10 µg/ml) was 626%.

Usually IC50 stands for the point on the concentration scale where inhibition reaches its midpoint. On to `O=CN(O)CCCP(=O)(O)O` [fosmidomycin], for which the IC50 in data set [2] was 32 nM. Besides, the antibacterial efficacy entry in data set [3] is on record as “strong antibacterial efficacy”. Further, the recrudescence entry in the data set with P. falciparum malaria is listed as “high rate of recrudescent infections”.
